Like-named read-outs stand apart in the source and are kept apart here.
Experiment: Phase 1 single-dose plasma pharmacokinetics in subjects with normal hepatic function, mild or moderate hepatic impairment
Type: in vivo, human
Conditions: for half-life / Tmax / concentration at 0.5 h / concentration at 1 h / concentration at 2 h / concentration at 3 h / concentration at 4 h / concentration at 6 h / concentration at 8 h / concentration at 12 h / concentration at 16 h / concentration at 24 h / concentration at 36 h / concentration at 48 h / AUC(0-t) / AUC(0-inf) / Cmax / Vd/F: human, plasma, po, 200 mg, 200 mg single oral dose
Excerpt: Patients: 27 subjects were enrolled within the following groups based on their Child-Pugh (CP) classification score: • Group 1: Matched-control healthy subjects with normal hepatic function; • Group 2: Subjects with mild hepatic impairment (CP Class A, score of 5 or 6); • Group 3: Subjects with moderate hepatic impairment (CP Class B, score of 7 to 9).
A parallel design strategy was adopted for the hepatic impairment groups. Each matched-control healthy subject (Group 1) was enrolled following the enrollment of a mild and/or moderate hepatic impairment subject and was demographically matched by age (±10 years), BMI (±20%), and sex to the enrolled hepatic impairment subject(s). Subjects with normal hepatic function were not matched to more than 1 hepatically-impaired subject within an impairment group; however, subjects with normal hepatic function could be matched to 1 subject from more than 1 hepatic impairment group.
Other noncompartmental parameters could be reported.
The paired t-test was performed separately for each hepatic impairment group and the corresponding matched healthy controls. Estimates of geometric mean ratios in primary PK parameters between each level of impaired hepatic function versus the matched healthy controls were presented along with the corresponding 90% confidence intervals (CIs) for the geometric mean ratios. The p-value assessing the difference between each impairment group and the healthy control group was presented.
The PK analysis was conducted by Covance Early Clinical Biometrics using WinNonlin Version 8.1.

[1] = Moderate Hepatic Impairment, read-out: Plasma concentration, Arithmetic Mean
[2] = Moderate Hepatic Impairment, read-out: Plasma concentration, Geometric Mean
[3] = Moderate Hepatic Impairment, read-out: Plasma concentration, Median
[4] = Normal Hepatic Function, read-out: Plasma concentration, Arithmetic Mean
[5] = Normal Hepatic Function, read-out: Plasma concentration, Geometric Mean
[6] = Normal Hepatic Function, read-out: Plasma concentration, Median

SMILES: N#CC1(c2ccc(NC(=O)c3cccnc3NCc3ccncc3)cc2)CCCC1 [Rivoceranib, N-[4-(1-cyanocyclopentyl)phenyl]-2-{[(pyridin-4-yl)methyl]amino} pyridine-3-carboxamide]
- half-life (Moderate Hepatic Impairment, read-out: t1/2, Geometric Mean (converted)): 18.4 h
- half-life (Moderate Hepatic Impairment, read-out: t1/2, Median (converted)): 18.2 h
- Tmax (Moderate Hepatic Impairment, read-out: tmax, Arithmetic Mean): 2 h
- Tmax (Moderate Hepatic Impairment, read-out: tmax, Geometric Mean): 1.8 h
- Tmax (Moderate Hepatic Impairment, read-out: tmax, Median): 2 h
- concentration at 0.5 h [1]: 115 ng/mL
- concentration at 0.5 h [2]: 57.1 ng/mL
- concentration at 0.5 h [3]: 92.2 ng/mL
- concentration at 1 h [1]: 195 ng/mL
- concentration at 1 h [2]: 140 ng/mL
- concentration at 1 h [3]: 154 ng/mL
- concentration at 2 h [1]: 190 ng/mL
- concentration at 2 h [2]: 178 ng/mL
- concentration at 2 h [3]: 170 ng/mL
- concentration at 3 h [1]: 166 ng/mL
- concentration at 3 h [2]: 154 ng/mL
- concentration at 3 h [3]: 162 ng/mL
- concentration at 4 h [1]: 134 ng/mL
- concentration at 4 h [2]: 121 ng/mL
- concentration at 4 h [3]: 132 ng/mL
- concentration at 6 h [1]: 106 ng/mL
- concentration at 6 h [2]: 96.8 ng/mL
- concentration at 6 h [3]: 93.8 ng/mL
- concentration at 8 h [1]: 85.5 ng/mL
- concentration at 8 h [2]: 80.3 ng/mL
- concentration at 8 h [3]: 85 ng/mL
- concentration at 12 h [1]: 62.3 ng/mL
- concentration at 12 h [2]: 58.2 ng/mL
- concentration at 12 h [3]: 54.2 ng/mL
- concentration at 16 h [1]: 52.6 ng/mL
- concentration at 16 h [2]: 45.3 ng/mL
- concentration at 16 h [3]: 43.4 ng/mL
- concentration at 24 h [1]: 44.3 ng/mL
- concentration at 24 h [2]: 38.7 ng/mL
- concentration at 24 h [3]: 36.5 ng/mL
- concentration at 36 h [1]: 24 ng/mL
- concentration at 36 h [2]: 20.9 ng/mL
- concentration at 36 h [3]: 24.9 ng/mL
- concentration at 48 h [1]: 17.4 ng/mL
- concentration at 48 h [2]: 18.1 ng/mL
- concentration at 48 h [3]: 15.5 ng/mL
- AUC(0-t) (Normal Hepatic Function, read-out: AUC0-t, Arithmetic Mean): 2690 ng·h/mL
- AUC(0-t) (Normal Hepatic Function, read-out: AUC0-t, Geometric Mean): 2560 ng·h/mL
- AUC(0-t) (Normal Hepatic Function, read-out: AUC0-t, Median): 2780 ng·h/mL
- AUC(0-inf) (Normal Hepatic Function, read-out: AUC0-∞, Arithmetic Mean): 3180 ng·h/mL
- AUC(0-inf) (Normal Hepatic Function, read-out: AUC0-∞, Geometric Mean): 3050 ng·h/mL
- AUC(0-inf) (Normal Hepatic Function, read-out: AUC0-∞, Median): 2880 ng·h/mL
- Cmax (Normal Hepatic Function, read-out: Cmax, Arithmetic Mean): 271 ng/mL
- Cmax (Normal Hepatic Function, read-out: Cmax, Geometric Mean): 250 ng/mL
- Cmax (Normal Hepatic Function, read-out: Cmax, Median): 270 ng/mL
- Vd/F (Normal Hepatic Function, read-out: VZ/F, Arithmetic Mean): 1340 L
- Vd/F (Normal Hepatic Function, read-out: VZ/F, Geometric Mean): 1310 L
- Vd/F (Normal Hepatic Function, read-out: VZ/F, Median): 1190 L
- half-life (Normal Hepatic Function, read-out: t1/2, Arithmetic Mean (converted)): 17.9 ± 8.6 h
- half-life (Normal Hepatic Function, read-out: t1/2, Geometric Mean (converted)): 16.3 h
- half-life (Normal Hepatic Function, read-out: t1/2, Median (converted)): 16.9 h
- Tmax (Normal Hepatic Function, read-out: tmax, Arithmetic Mean): 2.5 h
- Tmax (Normal Hepatic Function, read-out: tmax, Geometric Mean): 2.2 h
- Tmax (Normal Hepatic Function, read-out: tmax, Median): 2 h
- concentration at 0.5 h [4]: 17.7 ng/mL
- concentration at 0.5 h [5]: 15.2 ng/mL
- concentration at 0.5 h [6]: 6.8 ng/mL
- concentration at 1 h [4]: 136 ng/mL
- concentration at 1 h [5]: 92.9 ng/mL
- concentration at 1 h [6]: 74.4 ng/mL
- concentration at 2 h [4]: 226 ng/mL
- concentration at 2 h [5]: 204 ng/mL
- concentration at 2 h [6]: 236 ng/mL
- concentration at 3 h [4]: 216 ng/mL
- concentration at 3 h [5]: 192 ng/mL
- concentration at 3 h [6]: 199 ng/mL
- concentration at 4 h [4]: 164 ng/mL
- concentration at 4 h [5]: 149 ng/mL
- concentration at 4 h [6]: 147 ng/mL
- concentration at 6 h [4]: 131 ng/mL
- concentration at 6 h [5]: 117 ng/mL
- concentration at 6 h [6]: 106 ng/mL
- concentration at 8 h [4]: 99.4 ng/mL
- concentration at 8 h [5]: 89.5 ng/mL
- concentration at 8 h [6]: 81 ng/mL
- concentration at 12 h [4]: 67.8 ng/mL
- concentration at 12 h [5]: 63.2 ng/mL
- concentration at 12 h [6]: 61.9 ng/mL
- concentration at 16 h [4]: 48.8 ng/mL
- concentration at 16 h [5]: 45.7 ng/mL
- concentration at 16 h [6]: 49.7 ng/mL
- concentration at 24 h [4]: 43.2 ng/mL
- concentration at 24 h [5]: 40.4 ng/mL
- concentration at 24 h [6]: 43 ng/mL
- concentration at 36 h [4]: 23.9 ng/mL
- concentration at 36 h [5]: 21.3 ng/mL
- concentration at 36 h [6]: 24.2 ng/mL
- concentration at 48 h [4]: 14.9 ng/mL
- concentration at 48 h [5]: 14.8 ng/mL
- concentration at 48 h [6]: 15.9 ng/mL
- exposure in mild or moderate hepatic impairment compared to normal hepatic function (same amount of rivoceranib): do not have a statistically significant difference in exposure
